Values after ≈ are worked out from the molar mass of the structure shown. Active and inactive are the calls of the source. The rule behind the calls is not given here.
What was measured:
[1] = Cytotoxicity against Vero cells at 10 ug/ml after 72 hrs; assay type: cell-based; details: chlorocebus sabaeus, read-out: Inhibition
[2] = Cytotoxicity against Vero cells at 50 ug/ml after 72 hrs; assay type: cell-based; details: chlorocebus sabaeus, read-out: Inhibition
[3] = Cytotoxicity against human LS180 cells at 10 ug/ml after 72 hrs; assay type: functional; details: LS180, 72 h
[4] = Cytotoxicity against human LS180 cells at 50 ug/ml after 72 hrs; assay type: functional; details: LS180, 72 h
HeLa [5] = assay: Cytotoxicity against human HeLa cells at 10 ug/ml after 72 hrs; assay type: functional
HeLa [6] = assay: Cytotoxicity against human HeLa cells at 50 ug/ml after 72 hrs; assay type: functional
T47D [7] = assay: Cytotoxicity against human T47D cells at 10 ug/ml after 72 hrs; assay type: functional
T47D [8] = assay: Cytotoxicity against human T47D cells at 50 ug/ml after 72 hrs; assay type: functional
A549 [9] = assay: Anticancer activity against human A549 cells at 10 ug/ml after 72 hrs; assay type: functional; details: A549, 72 h
A549 [10] = assay: Anticancer activity against human A549 cells at 50 ug/ml after 72 hrs; assay type: functional; details: A549, 72 h
HT-29 = assay: Anticancer activity against human HT 29 cells; assay type: functional, cell-based
Jurkat = assay: Anticancer activity against human jurkat cells; assay type: functional, cell-based
Staphylococcus aureus = assay: Antibacterial activity against Staphylococcus aureus after 24 hrs by microdilution broth method; assay type: functional
[11] = system: Staphylococcus epidermidis; assay: Antibacterial activity against Staphylococcus epidermidis after 24 hrs by microdilution broth method; assay type: functional
Streptococcus pyogenes = assay: Antibacterial activity against Streptococcus pyogenes after 24 hrs by microdilution broth method; assay type: functional
Escherichia coli = assay: Antibacterial activity against Escherichia coli after 24 hrs by microdilution broth method; assay type: functional
[12] = Cell viability in HSF cells at 1 uM after 24 hrs by MTT assay; assay type: cell-based, Fibroblast; details: human, read-out: Activity
[13] = Cell viability in HSF cells at 50 uM after 24 hrs by MTT assay; assay type: cell-based, Fibroblast; details: human, read-out: Activity
[14] = Cell viability in HSF cells at 100 uM after 24 hrs by MTT assay; assay type: functional, Homo sapiens, Fibroblast
RPMI-8226 [15] = assay: Cell viability in human RPMI 8226 ECACC 87012702 cancer cells at 1 uM after 24 hrs by MTT assay; assay type: functional
[16] = Acute toxicity in mouse; assay type: organism-based; details: in vivo
T47D [17] = assay: Induction of DNA damage in T47D cells at 37.9 uM; assay type: functional, cell-based; details: Homo sapiens
HeLa [18] = assay: Induction of DNA damage in HeLa cells at 37.9 uM; assay type: functional, cell-based; details: Homo sapiens
LS180 = assay: Induction of DNA damage in LS180 cells at 37.9 uM; assay type: functional, cell-based; details: Homo sapiens
RPMI-8226 [19] = assay: Cell viability in human RPMI 8226 ECACC 87012702 cancer cells at 50 uM after 24 hrs by MTT assay; assay type: functional
RPMI-8226 [20] = assay: Cell viability in human RPMI 8226 ECACC 87012702 cancer cells at 100 uM after 24 hrs by MTT assay; assay type: functional

Compound	MIC (Staphylococcus aureus) [µM]	MIC [11] [µM]	MIC (Streptococcus pyogenes) [µM]	MIC (Escherichia coli) [µM]	cytotoxicity at 72 h, 10 ug/ml [1] [%]	cytotoxicity at 72 h, 50 ug/ml [2] [%]	inhibition at 10 µg/mL [3] [%]	inhibition at 50 µg/mL [4] [%]	inhibition at 10 µg/mL (HeLa [5]) [%]	inhibition at 50 µg/mL (HeLa [6]) [%]	inhibition at 10 µg/mL (T47D [7]) [%]	inhibition at 50 µg/mL (T47D [8]) [%]	also measured
Cc1ccc(N2CCn3c2n[nH]c(=O)c3=N)cc1	–	–	–	–	0	0	32	45	0	0	0	0	inhibition at 10 µg/mL (A549 [9]): 37%; inhibition at 50 µg/mL (A549 [10]): 38%; Activity (HT-29): Active; Activity (Jurkat): Active
N/N=C1\NCCN1c1ccc(Cl)cc1	29.5 (≈ 6.21 µg/mL)	18.4 (≈ 3.88 µg/mL)	59.1 (≈ 12.5 µg/mL)	36.9 (≈ 7.77 µg/mL)	–	–	–	–	–	–	–	–	–
N/N=C1\NCCN1c1ccccc1	41.1 (≈ 7.24 µg/mL)	41.1 (≈ 7.24 µg/mL)	65.8 (≈ 11.6 µg/mL)	41.1 (≈ 7.24 µg/mL)	0	0	1	0	6	3	0	0	–
COc1ccc(N2CCN/C2=N\N)cc1	29.9 (≈ 6.17 µg/mL)	18.7 (≈ 3.86 µg/mL)	59.8 (≈ 12.3 µg/mL)	15 (≈ 3.09 µg/mL)	0	0	4	9	0	0	17	23	–
O=c1[nH]nc2n(c1=O)CCN2c1ccc(Cl)cc1	–	–	–	–	0	7	50	35	2	26	5	1	viability at 24 h, 1 µM [12]: 99%; viability at 24 h, 50 µM [13]: 95%; Activity [14]: 96%; Activity (RPMI-8226 [15]): 104%; inhibition at 10 µg/mL (A549 [9]): 0%; inhibition at 50 µg/mL (A549 [10]): 15%; LD50 [16]: > 2000 mg/kg; Activity (T47D [17]): Active; Activity (HeLa [18]): Active; Activity (LS180): Active; Activity (RPMI-8226 [19]): 89%; Activity (RPMI-8226 [20]): 61%

More lines, main results first:

MIC (Staphylococcus aureus) [µM]	MIC [11] [µM]	MIC (Streptococcus pyogenes) [µM]	MIC (Escherichia coli) [µM]	Compound	cytotoxicity at 72 h, 10 ug/ml [1] [%]	cytotoxicity at 72 h, 50 ug/ml [2] [%]	inhibition at 10 µg/mL [3] [%]	inhibition at 50 µg/mL [4] [%]	inhibition at 10 µg/mL (HeLa [5]) [%]	inhibition at 50 µg/mL (HeLa [6]) [%]	inhibition at 10 µg/mL (T47D [7]) [%]	inhibition at 50 µg/mL (T47D [8]) [%]	also measured
39.3 (≈ 7.48 µg/mL)	31.4 (≈ 5.97 µg/mL)	78.6 (≈ 15 µg/mL)	15.7 (≈ 2.99 µg/mL)	Cc1ccccc1N1CCN/C1=N\N	–	–	–	–	–	–	–	–	–
37.4 (≈ 7.71 µg/mL)	37.4 (≈ 7.71 µg/mL)	74.8 (≈ 15.4 µg/mL)	29.9 (≈ 6.17 µg/mL)	COc1ccccc1N1CCN/C1=N\N	–	–	–	–	–	–	–	–	–
37.6 (≈ 7.68 µg/mL)	18.8 (≈ 3.84 µg/mL)	75.2 (≈ 15.4 µg/mL)	18.8 (≈ 3.84 µg/mL)	Cc1cccc(N2CCN/C2=N\N)c1C	16	14	6	0	8	0	21	25	–

Source: ChEMBL document CHEMBL1147867, “Identification of antitumour activity of novel derivatives of 8-aryl-2,6,7,8-tetrahydroimidazo[2,1-c][1,2,4]triazine-3,4-dione and 8-aryl-4-imino-2,3,7,8-tetrahydroimidazo[2,1-c][1,2,4]triazin-3(6H)-one” (Bioorg Med Chem, 2007)
